In publication PMC11466185, “Mechanisms and efficacy of small molecule latency-promoting agents to inhibit HIV reactivation ex vivo” (JCI Insight, 2024):
Where two headings read alike, the source gives them in different places.

Assays:
[1] = system: PBMCs; assay: Cell viability by trypan blue staining after 24 hours; assay type: cell-based, human; design: key to Viability (dose-response): % of activated DMSO control viability; conditions: for Viability (dose-response): 1 participant per drug, in % (unit assumed)
Procedure, shortened: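 PBMCs from ART-suppressed donors at 6 × 10^6 cells/well were activated with CD3/28 beads and cultured with antiretrovirals plus drug in DMSO. Viability counted by trypan blue after 24 hours. Values were normalized to the activated DMSO control.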

[2] = system: HIV transcripts (TAR, LLTR, Pol, PolyA, TatRev); assay: Latency reversal assay: cell-associated HIV transcripts (RT-ddPCR) 24 hours after anti-CD3/CD28 activation of PBMCs from ART-suppressed PWH; assay type: cell-based; design: Elongated (LLTR) HIV transcripts, median relative to activated DMSO, initial screening / Midtranscribed (Pol) HIV transcripts, median relative to activated DMSO, initial screening / Multiply spliced (TatRev) HIV transcripts, median relative to activated DMSO, initial screening: concentration or dose not given beside the values; conditions: for HIV transcriptional completion, ratio PolyA/LLTR: Figure 3C
Procedure, shortened: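 PBMCs from ART-suppressed people with HIV (6 × 10^6 cells/well) treated with drug in DMSO, activated with anti-CD3/CD28 beads with antiretrovirals, harvested after 24 hours. TAR, LLTR, Pol, PolyA and TatRev transcripts measured by RT-ddPCR, normalized to 1 μg total RNA, expressed as % of activated DMSO control.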

[3] = system: HIV transcripts (PolyA, TatRev); assay: Dose-response curves of LPAs: polyadenylated and multiply spliced HIV transcripts 24 hours after activation; assay type: cell-based; conditions: for IC50: Human immunodeficiency virus 1, PBMC, 24 h, PBMCs from 1 participant per drug; for MS Tat-Rev (dose-response) / PolyA (dose-response): 24 hours, 1 participant per drug
Method: The IC50 was determined based on the reduction in completed (PolyA) as well as multiply spliced (TatRev) HIV transcripts relative to activated DMSO (Table 1).
Figure 2 Dose-response curves of LPAs. Dose-response curves for each drug were generated in PBMCs from 1 ART-suppressed study participant per drug. PBMCs were aliquoted into wells at 6 × 10^6 cells/well, activated, and cultured with antiretrovirals in the presence of DMSO alone (no drug) or varying concentrations of individual drugs in DMSO. After 24 hours, the levels of polyadenylated and multiply spliced HIV transcripts were quantified by RT-ddPCR, normalized to 1 μg of total cellular RNA, and expressed as a percentage of the activated DMSO control (% of activated DMSO).

[4] = 24 hours, compared with activated DMSO
[5] = reduction in PolyA HIV transcripts relative to activated DMSO, read-out: Completed (PolyA) IC50
[6] = reduction in TatRev HIV transcripts relative to activated DMSO, read-out: Multiply spliced (TatRev) IC50
[7] = initial screening, 2 participants, 24 hours, Supplemental Figure 2

SMILES	Viability (dose-response) ([1]; dose 1 nM)	Viability (dose-response) ([1]; dose 8 nM)	Viability (Fig 1A) ([1]; study participant 150a)	Viability (Fig 1A) ([1]; study participant 152)	HIV transcriptional completion, ratio PolyA/LLTR [2, 4]	IC50 [3, 5] [µM]	IC50 [3, 6] [µM]	PolyA (dose-response) ([3]; dose 1 nM)	PolyA (dose-response) ([3]; dose 8 nM)	Viability (dose-response) ([1]; dose 4 nM)	PolyA (dose-response) ([3]; dose 4 nM)	Viability (dose-response) ([1]; dose 10 µM)	MS Tat-Rev (dose-response) ([3]; dose 10 µM)	PolyA (dose-response) ([3]; dose 10 µM)	other results
CC(=O)N[C@@H]1CCC[C@H](C(=O)Nc2cc(-c3cnn4c3CC(C)(C)C4)c(Cl)cn2)C1 [AZD4573]	74.75	63.616	106.07 % of activated DMSO	97.45 % of activated DMSO	reduced	0.00028	0.00023	20.96 % of activated DMSO	5.23 % of activated DMSO	–	–	–	–	–	Viability (dose-response) ([1]; dose 20 nM): 68.369; MS Tat-Rev (dose-response) ([3]; dose 1 nM): 18.92 % of activated DMSO; MS Tat-Rev (dose-response) ([3]; dose 8 nM): 1.11 % of activated DMSO; MS Tat-Rev (dose-response) ([3]; dose 20 nM): 0.18 % of activated DMSO; PolyA (dose-response) ([3]; dose 20 nM): 4.94 % of activated DMSO
CN1CC[C@H](c2c(O)cc(O)c3c(=O)cc(-c4ccccc4Cl)oc23)[C@H](O)C1 [alvocidib]	–	–	98.54 % of activated DMSO	–	–	0.00341	0.00423	–	–	81	52.96 % of activated DMSO	–	–	–	Viability (dose-response) ([1]; dose 10 nM): 85; Viability (dose-response) ([1]; dose 40 nM): 95.181; Viability (dose-response) ([1]; dose 100 nM): 77; MS Tat-Rev (dose-response) ([3]; dose 4 nM): 60.15 % of activated DMSO; MS Tat-Rev (dose-response) ([3]; dose 10 nM): 21.37 % of activated DMSO; PolyA (dose-response) ([3]; dose 10 nM): 17.13 % of activated DMSO; MS Tat-Rev (dose-response) ([3]; dose 40 nM): 5.52 % of activated DMSO; PolyA (dose-response) ([3]; dose 40 nM): 5.99 % of activated DMSO; MS Tat-Rev (dose-response) ([3]; dose 100 nM): 1.88 % of activated DMSO; PolyA (dose-response) ([3]; dose 100 nM): 3.2 % of activated DMSO
CCc1cnn2c(NCc3ccc[n+]([O-])c3)cc(N3CCCC[C@H]3CCO)nc12 [dinaciclib]	89.474	89.726	96.36 % of activated DMSO	99.43 % of activated DMSO	–	–	–	39.51 % of activated DMSO	1.62 % of activated DMSO	89.815	6.37 % of activated DMSO	–	–	–	–
O=c1c(O)c(-c2ccc(O)c(O)c2)oc2cc(O)cc(O)c12 [quercetin]	–	–	100.02 % of activated DMSO	90.16 % of activated DMSO	–	1.41	1.13	–	–	–	–	77.686	14.99 % of activated DMSO	19.46 % of activated DMSO	Viability (dose-response) ([1]; dose 5 µM): 87.619; MS Tat-Rev (dose-response) ([3]; dose 5 µM): 15.52 % of activated DMSO; PolyA (dose-response) ([3]; dose 5 µM): 17.57 % of activated DMSO
N#CC[C@H](C1CCCC1)n1cc(-c2ncnc3[nH]ccc23)cn1 [ruxolitinib]	–	–	95.89 % of activated DMSO	102.01 % of activated DMSO	–	0.27	0.26	–	–	–	–	89.32	4.34 % of activated DMSO	4.66 % of activated DMSO	Viability (dose-response) ([1]; dose 0.4 µM): 90.244; Viability (dose-response) ([1]; dose 1 µM): 87.333; Viability (dose-response) ([1]; dose 4 µM): 92.053; mrna remaining at 4 µM ([2]; Human immunodeficiency virus 1, PBMC, 24 h, 4μM, 24 h after αCD3/28 activation, each column one participant, read-out: TAR HIV transcripts (DMSO+αCD3/28 = 100)): 34.5%; MS Tat-Rev (dose-response) ([3]; dose 0.4 µM): 41.24 % of activated DMSO; PolyA (dose-response) ([3]; dose 0.4 µM): 33.83 % of activated DMSO; MS Tat-Rev (dose-response) ([3]; dose 1 µM): 15.99 % of activated DMSO; PolyA (dose-response) ([3]; dose 1 µM): 29.83 % of activated DMSO; MS Tat-Rev (dose-response) ([3]; dose 4 µM): 8.19 % of activated DMSO; PolyA (dose-response) ([3]; dose 4 µM): 7.04 % of activated DMSO
CC(C)[C@]12O[C@H]1[C@@H]1O[C@]13[C@]1(O[C@H]1C[C@H]1C4=C(CC[C@@]13C)C(=O)OC4)[C@@H]2O [triptolide]	–	–	–	–	reduced completion	–	–	–	–	–	–	–	–	–	Cell viability (in words) ([1]; initial screening concentrations, Figure 1A): impact on cell viability; Viability (Fig 1A) ([1]; study participant 150b): 96.4057 % of activated DMSO; Viability (Fig 1A) ([1]; study participant 2147b): 91.51 % of activated DMSO; HIV transcriptional elongation, ratio LLTR/TAR ([2]; 24 hours, compared with activated DMSO, Figure 3B): no impact; HIV multiple splicing, ratio TatRev/PolyA ([2]; 24 hours, compared with activated DMSO, Figure 3D): reduce HIV multiple splicing; Decrease in initiated TAR transcripts ([2]; after activation, relative to activated DMSO): more than 95%; Multiply spliced (TatRev) HIV transcripts, median relative to activated DMSO, initial screening ([2]; initial screening, 2 participants, 24 hours, Figure 1B, Supplemental Figure 2): 0%; Elongated (LLTR) HIV transcripts, median relative to activated DMSO, initial screening [2, 7]: 21%; Midtranscribed (Pol) HIV transcripts, median relative to activated DMSO, initial screening [2, 7]: 9%
